# Results reported in patent US4774330A, “Cephalosporin intermediates” (Hoffmann-La Roche Inc., priority 1980, dated 1988).
# Structures can show the parent of a compound that is named as a salt. Where two headings read alike, the source gives them in different places.
# What was measured:
# Pseudomonas aeruginosa = experiment: MIC in vitro, Pseudomonas aeruginosa; type: cell-based
# Method: (§1) The following products were tested:
# (§2) The following results relate to the minimum inhibitory concentration (MIC) in vitro (μg/ml): […]
# [1] = toxicity, 24 hours values; type: in vivo; conditions: 24 hours value; for MTD at 24 h: in vivo, read-out: Tolerated dosage
# Method: The compounds in accordance with the invention are non-toxic, as will be evident from the following data for the 24 hours values of products A and B: […]
# Neisseria meningitidis = experiment: MIC in vitro, Neisseria meningitidis; type: cell-based
# Method: as §1, §2
# Serratia marcescens [2] = experiment: s.c. treatment of mice before i.p. infection, Serratia marcescens; type: in vivo; conditions: sc, 5 hours before i.p. infection
# Method: (§3) The long retention of the products in accordance with the invention in the organism is also evident after the s.c. treatment of mice with product A or C 5 hours before a i.p. infection with the microorganism to be tested, the following Ed50 values being ascertained: […]
# Haemophilus influenzae = experiment: MIC in vitro, Haemophilus influenzae; type: cell-based
# Method: as §1, §2
# Proteus morganii = experiment: MIC in vitro, Proteus morganii; type: cell-based; conditions: Morganella morganii
# Method: as §1, §2
# Streptococcus pneumoniae = experiment: MIC in vitro, Streptococcus pneumoniae; type: cell-based
# Method: as §1, §2
# Citrobacter freundii = experiment: MIC in vitro, Citrobacter freundii; type: cell-based
# Method: as §1, §2
# Neisseria gonorrhoeae = experiment: MIC in vitro, Neisseria gonorrhoeae; type: cell-based
# Method: as §1, §2
# Streptococcus pyogenes [3] = experiment: s.c. treatment of mice before i.p. infection, Streptococcus pyogenes; type: in vivo; conditions: sc, 5 hours before i.p. infection
# Method: as §3
# [4] = tested on: Staphylococcus epidermidis; experiment: MIC in vitro, Staphylococcus epidermidis; type: cell-based
# Method: as §1, §2
# Enterobacter aerogenes = experiment: MIC in vitro, Enterobacter aerogenes; type: cell-based; conditions: Klebsiella aerogenes
# Method: as §1, §2
# [5] = half-life in vivo after i.v. administration; conditions: rat, plasma, iv; 20 mg i.v., rats
# Source text: The compounds of formula I as well as the corresponding readily hydrolyzable esters, readily hydrolyzable ethers and salts and the hydrates of same have antibiotic, especially bactericidal, activity.
# Streptococcus faecalis = experiment: MIC in vitro, Streptococcus faecalis; type: cell-based; conditions: Enterococcus faecalis
# Method: as §1, §2
# Streptococcus viridans = experiment: MIC in vitro, Streptococcus viridans; type: cell-based
# Method: as §1, §2
# Klebsiella pneumoniae = experiment: MIC in vitro, Klebsiella pneumoniae; type: cell-based
# Method: as §1, §2
# Proteus vulgaris = experiment: MIC in vitro, Proteus vulgaris; type: cell-based
# Method: as §1, §2
# Proteus mirabilis = experiment: MIC in vitro, Proteus mirabilis; type: cell-based
# Method: as §1, §2
# Escherichia coli [6] = experiment: MIC in vitro, Escherichia coli; type: cell-based
# Method: as §1, §2
# Enterobacter cloacae = experiment: MIC in vitro, Enterobacter cloacae; type: cell-based
# Method: as §1, §2
# Streptococcus pyogenes [7] = experiment: MIC in vitro, Streptococcus pyogenes; type: cell-based
# Method: as §1, §2
# Proteus rettgeri = experiment: MIC in vitro, Proteus rettgeri; type: cell-based; conditions: Providencia rettgeri
# Method: as §1, §2
# Serratia marcescens [8] = experiment: MIC in vitro, Serratia marcescens; type: cell-based
# Method: as §1, §2
# Proteus inconstans = experiment: MIC in vitro, Proteus inconstans; type: cell-based; conditions: Providencia alcalifaciens
# Method: as §1, §2
# Staphylococcus aureus = experiment: MIC in vitro, Staphylococcus aureus; type: cell-based
# Method: as §1, §2
# Escherichia coli [9] = experiment: s.c. treatment of mice before i.p. infection, Escherichia coli; type: in vivo; conditions: sc, administered 24 hours before the infection
# Method: The long retention of the products in accordance with the invention in the organism is also evident after the s.c. treatment of mice with product A or C 5 hours before a i.p. infection with the microorganism to be tested, the following Ed50 values being ascertained: | *Administered 24 hours before the infection.
structure (smiles),measurement,setting,value
"Cn1nc(O)c(=O)nc1SCC1=C(C(=O)O)N2C(=O)[C@@H](NC(=O)/C(=N\O)c3csc(N)n3)[C@H]2SC1 [Product A, (6R,7R)-7-[2-(2-Amino-4-thiazolyl)-2-(Z-hydroxyimino)acetamido]-3-/[(2,5-dihydro-6-hydroxy-2-methyl-5-oxo-as-triazin-3-yl)thio]methyl/-8-oxo-5-thia-1-azabicyclo[4.2.0]oct-2-ene-2-carboxylic acid disodium salt]",MIC,Pseudomonas aeruginosa; strain 1,> 80 µg/mL
same,MIC,Pseudomonas aeruginosa; strain 2,> 80 µg/mL
same,MIC,Pseudomonas aeruginosa; strain 3,40 µg/mL
same,MIC,Pseudomonas aeruginosa; strain 4,80 µg/mL
same,MIC,Pseudomonas aeruginosa; strain 5,> 80 µg/mL
same,MIC,Pseudomonas aeruginosa; strain 6,10 µg/mL
same,MIC,Pseudomonas aeruginosa; strain 7,5 µg/mL
same,MIC,Pseudomonas aeruginosa; strain 8,20 µg/mL
same,MIC,Pseudomonas aeruginosa; strain 9,> 80 µg/mL
same,MIC,Pseudomonas aeruginosa; strain 10,10 µg/mL
same,MIC,Pseudomonas aeruginosa; strain 11,5 µg/mL
same,MIC,Pseudomonas aeruginosa; strain 12,> 80 µg/mL
same,MIC,Pseudomonas aeruginosa; strain 13,80 µg/mL
same,MIC,Pseudomonas aeruginosa; strain 14,> 80 µg/mL
same,MIC,Pseudomonas aeruginosa; strain 15,80 µg/mL
same,MIC,Pseudomonas aeruginosa; strain 16,> 80 µg/mL
same,MIC,Pseudomonas aeruginosa; strain 17,> 80 µg/mL
same,MTD at 24 h,[1]; intravenous,500 mg/kg
same,MTD at 24 h,[1]; oral,5000 mg/kg
same,Lethal dosage,[1]; intravenous,1000 mg/kg
same,Lethal dosage,[1]; oral,> 5000 mg/kg
same,Lethal dosage,[1]; subcutaneous,> 4000 mg/kg
same,MIC,Neisseria meningitidis; strain 1,0.0025 µg/mL
same,MIC,Neisseria meningitidis; strain 2,0.0025 µg/mL
same,MIC,Neisseria meningitidis; strain 3,0.0025 µg/mL
same,MIC,Neisseria meningitidis; strain 4,0.0012 µg/mL
same,ED50,Serratia marcescens [2],0.89 mg/kg
same,MIC,Haemophilus influenzae; strain 1,0.63 µg/mL
same,MIC,Haemophilus influenzae; strain 2,0.04 µg/mL
same,MIC,Haemophilus influenzae; strain 3,0.04 µg/mL
same,MIC,Haemophilus influenzae; strain 4,0.04 µg/mL
same,MIC,Haemophilus influenzae; strain 5,0.04 µg/mL
same,MIC,Haemophilus influenzae; strain 6,0.02 µg/mL
same,MIC,Haemophilus influenzae; strain 7,0.04 µg/mL
same,MIC,Proteus morganii; strain 1,≤ 0.04 µg/mL
same,MIC,Proteus morganii; strain 2,0.05 µg/mL
same,MIC,Streptococcus pneumoniae,0.4 µg/mL
same,MIC,Citrobacter freundii; strain 1,80 µg/mL
same,MIC,Citrobacter freundii; strain 2,6.3 µg/mL
same,MIC,Citrobacter freundii; strain 3,0.2 µg/mL
same,MIC,Neisseria gonorrhoeae; strain 1,0.0012 µg/mL
same,MIC,Neisseria gonorrhoeae; strain 2,0.0012 µg/mL
same,MIC,Neisseria gonorrhoeae; strain 3,0.02 µg/mL
same,MIC,Neisseria gonorrhoeae; strain 4,0.01 µg/mL
same,MIC,Neisseria gonorrhoeae; strain 5,0.04 µg/mL
same,MIC,Neisseria gonorrhoeae; strain 6,0.0006 µg/mL
same,ED50,Streptococcus pyogenes [3],0.15 mg/kg
same,MIC,[4],1.6 µg/mL
same,MIC,Enterobacter aerogenes; strain 1,0.1 µg/mL
same,MIC,Enterobacter aerogenes; strain 2,0.8 µg/mL
same,half-life,[5],2.33 h
same,MIC,Streptococcus faecalis; strain 1,25 µg/mL
same,MIC,Streptococcus faecalis; strain 2,> 25 µg/mL
same,MIC,Streptococcus viridans,1.6 µg/mL
same,MIC,Klebsiella pneumoniae; strain 1,0.02 µg/mL
same,MIC,Klebsiella pneumoniae; strain 2,0.1 µg/mL
same,MIC,Klebsiella pneumoniae; strain 3,0.025 µg/mL
same,MIC,Klebsiella pneumoniae; strain 4,0.05 µg/mL
same,MIC,Proteus vulgaris; strain 1,0.31 µg/mL
same,MIC,Proteus vulgaris; strain 2,0.31 µg/mL
same,MIC,Proteus vulgaris; strain 3,0.63 µg/mL
same,MIC,Proteus vulgaris; strain 4,3.1 µg/mL
same,MIC,Proteus vulgaris; strain 5,0.1 µg/mL
same,MIC,Proteus vulgaris; strain 6,0.05 µg/mL
same,MIC,Proteus mirabilis; strain 1,0.02 µg/mL
same,MIC,Proteus mirabilis; strain 2,0.025 µg/mL
same,MIC,Proteus mirabilis; strain 3,0.05 µg/mL
same,MIC,Proteus mirabilis; strain 4,0.025 µg/mL
same,MIC,Escherichia coli [6]; strain 1,1.2 µg/mL
same,MIC,Escherichia coli [6]; strain 2,1.2 µg/mL
same,MIC,Escherichia coli [6]; strain 3,2.5 µg/mL
same,MIC,Escherichia coli [6]; strain 4,0.31 µg/mL
same,MIC,Escherichia coli [6]; strain 5,0.4 µg/mL
same,MIC,Escherichia coli [6]; strain 6,0.2 µg/mL
same,MIC,Escherichia coli [6]; strain 7,0.025 µg/mL
same,MIC,Escherichia coli [6]; strain 8,0.05 µg/mL
same,MIC,Enterobacter cloacae; strain 1,20 µg/mL
same,MIC,Enterobacter cloacae; strain 2,> 80 µg/mL
same,MIC,Enterobacter cloacae; strain 3,> 25 µg/mL
same,MIC,Enterobacter cloacae; strain 4,12.5 µg/mL
same,MIC,Streptococcus pyogenes [7]; strain 1,0.1 µg/mL
same,MIC,Streptococcus pyogenes [7]; strain 2,0.05 µg/mL
same,MIC,Proteus rettgeri; strain 1,0.63 µg/mL
same,MIC,Proteus rettgeri; strain 2,0.05 µg/mL
same,MIC,Serratia marcescens [8]; strain 1,0.16 µg/mL
same,MIC,Serratia marcescens [8]; strain 2,0.31 µg/mL
same,MIC,Serratia marcescens [8]; strain 3,0.31 µg/mL
same,MIC,Serratia marcescens [8]; strain 4,0.63 µg/mL
same,MIC,Serratia marcescens [8]; strain 5,0.31 µg/mL
same,MIC,Serratia marcescens [8]; strain 6,0.31 µg/mL
same,MIC,Serratia marcescens [8]; strain 7,0.31 µg/mL
same,MIC,Serratia marcescens [8]; strain 8,0.31 µg/mL
same,MIC,Serratia marcescens [8]; strain 9,0.16 µg/mL
same,MIC,Serratia marcescens [8]; strain 10,0.8 µg/mL
same,MIC,Serratia marcescens [8]; strain 11,6.3 µg/mL
same,MIC,Serratia marcescens [8]; strain 12,0.1 µg/mL
same,MIC,Proteus inconstans; strain 1,0.08 µg/mL
same,MIC,Proteus inconstans; strain 2,0.01 µg/mL
same,MIC,Proteus inconstans; strain 3,≤ 0.025 µg/mL
same,MIC,Staphylococcus aureus; strain 1,0.62 µg/mL
same,MIC,Staphylococcus aureus; strain 2: β-lactamase producing,1.2 µg/mL
same,MIC,Staphylococcus aureus; strain 3,1.6 µg/mL
same,MIC,Staphylococcus aureus; strain 4,1.6 µg/mL
same,MIC,Staphylococcus aureus; strain 5,1.6 µg/mL
same,MIC,Staphylococcus aureus; strain 6,3.1 µg/mL
"Cn1nc(OCOC(=O)C(C)(C)C)c(=O)nc1SCC1=C(C(=O)O)N2C(=O)[C@@H](NC(=O)/C(=N\O)c3csc(N)n3)[C@H]2SC1 [Product B, (6R,7R)-7-[2-(2-Amino-4-thiazolyl)-2-(Z-hydroxyimino)acetamindo]-3-[[[2,5-dihydro-2-methyl-5-oxo-6-[(pivaloyloxy)methoxy]-as-triazin-3-yl]thio]methyl]-8-oxo-5-thia-1-azabicyclo[4.2.0]oct-2-ene-2-carboxylic acid sodium salt]",MTD at 24 h,"[1]; sc, subcutaneous",> 4000 mg/kg
same,MTD at 24 h,[1]; oral,> 5000 mg/kg
same,MIC,Proteus morganii; strain 2,1.6 µg/mL
same,MIC,Streptococcus pneumoniae,0.1 µg/mL
same,MIC,Citrobacter freundii; strain 2,3.1 µg/mL
same,MIC,Citrobacter freundii; strain 3,0.4 µg/mL
same,MIC,[4],0.4 µg/mL
same,MIC,Enterobacter aerogenes; strain 1,0.2 µg/mL
same,MIC,Enterobacter aerogenes; strain 2,1.6 µg/mL
same,MIC,Streptococcus faecalis; strain 1,6.3 µg/mL
same,MIC,Streptococcus faecalis; strain 2,> 25 µg/mL
same,MIC,Streptococcus viridans,0.4 µg/mL
same,MIC,Klebsiella pneumoniae; strain 2,1.6 µg/mL
same,MIC,Klebsiella pneumoniae; strain 3,0.4 µg/mL
same,MIC,Klebsiella pneumoniae; strain 4,0.8 µg/mL
same,MIC,Proteus vulgaris; strain 4,12.5 µg/mL
same,MIC,Proteus vulgaris; strain 5,0.8 µg/mL
same,MIC,Proteus vulgaris; strain 6,0.8 µg/mL
same,MIC,Proteus mirabilis; strain 2,0.4 µg/mL
same,MIC,Proteus mirabilis; strain 3,1.6 µg/mL
same,MIC,Proteus mirabilis; strain 4,0.8 µg/mL
same,MIC,Escherichia coli [6]; strain 5,0.4 µg/mL
same,MIC,Escherichia coli [6]; strain 6,0.2 µg/mL
same,MIC,Escherichia coli [6]; strain 7,0.05 µg/mL
same,MIC,Escherichia coli [6]; strain 8,0.8 µg/mL
same,MIC,Enterobacter cloacae; strain 3,> 25 µg/mL
same,MIC,Enterobacter cloacae; strain 4,6.3 µg/mL
same,MIC,Streptococcus pyogenes [7]; strain 1,0.025 µg/mL
same,MIC,Streptococcus pyogenes [7]; strain 2,0.025 µg/mL
same,MIC,Proteus rettgeri; strain 2,0.4 µg/mL
same,MIC,Serratia marcescens [8]; strain 10,6.3 µg/mL
same,MIC,Serratia marcescens [8]; strain 11,12.5 µg/mL
same,MIC,Serratia marcescens [8]; strain 12,1.6 µg/mL
same,MIC,Proteus inconstans; strain 2,0.2 µg/mL
same,MIC,Proteus inconstans; strain 3,≤ 0.025 µg/mL
same,MIC,Staphylococcus aureus; strain 3,0.4 µg/mL
same,MIC,Staphylococcus aureus; strain 4,0.8 µg/mL
same,MIC,Staphylococcus aureus; strain 5,0.4 µg/mL
same,MIC,Staphylococcus aureus; strain 6,0.8 µg/mL
"Cn1nc(OCOC(=O)C(C)(C)C)c(=O)nc1SCC1=C(C(=O)OCOC(=O)C(C)(C)C)N2C(=O)[C@@H](NC(=O)/C(=N\O)c3csc(N)n3)[C@H]2SC1 [Product C, Methylene-(6R,7R)-7-[2-(2-amino-4-thiazolyl)-2-(Z-hydroxyimino)acetamido]-3-[[[2,5-dihydro-2-methyl-5-oxo-6-[(pivaloyloxy)methoxy]-as-triazin-3-yl]thio]methyl]-8-oxo-5-thia-1-azabicyclo[4.2.0]-oct-2-ene-2-carboxylate pivalate]",ED50,Streptococcus pyogenes [3],0.45 mg/kg
same,ED50,Escherichia coli [9],5.6 mg/kg
